The term IC50 denotes the midpoint of a concentration-inhibition curve.

From patent US10093623B2, “Cyclic amides as MetAP-2 inhibitors” (MERCK PATENT GmbH, priority 2012, dated 2018) come the findings set out here.

This assay deals with MetAP-2 (Homo sapiens, UniProt P50579). The assay is described as follows: MetAP-2 activity measurement (coupled enzymatic reactions, Met-Arg-Ser substrate, dianisidine detection at 450 nm). The assay is classed as biochemical. Particulars: Inhibition of MetAP-2; read-out: IC50 enzyme. The procedure, abridged:
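Coupled continuous assay with Met-Arg-Ser tripeptide substrate: released methionine oxidised by L-amino acid oxidase to give H2O2, which peroxidase uses to oxidise dianisidine, followed at 450 nm. Activity taken as slope of absorbance versus time over the visually linear region; dianisidine extinction coefficient converts to mol Met per time.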

Chain of MetAP-2 (P50579 whole entry, species assumed): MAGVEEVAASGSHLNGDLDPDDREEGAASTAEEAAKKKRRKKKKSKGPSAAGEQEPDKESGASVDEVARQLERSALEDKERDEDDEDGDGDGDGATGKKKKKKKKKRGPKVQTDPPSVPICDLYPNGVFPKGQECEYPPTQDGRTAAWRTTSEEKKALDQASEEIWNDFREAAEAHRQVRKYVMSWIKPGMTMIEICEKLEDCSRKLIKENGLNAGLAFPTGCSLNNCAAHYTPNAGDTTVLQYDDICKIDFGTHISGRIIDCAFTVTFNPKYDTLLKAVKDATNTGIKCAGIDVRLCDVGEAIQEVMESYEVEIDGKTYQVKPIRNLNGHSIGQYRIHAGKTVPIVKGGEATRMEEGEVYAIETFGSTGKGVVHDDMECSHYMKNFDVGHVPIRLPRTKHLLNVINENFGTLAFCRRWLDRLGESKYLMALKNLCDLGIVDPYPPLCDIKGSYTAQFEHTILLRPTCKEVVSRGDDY

Regarding `N#CCn1cc(N2CC[C@@](O)(C(=O)NCc3cc(F)cc(Cl)c3)C2=O)cn1` [B117, N-(3-Chloro-5-fluorobenzyl)-(R)-1-(1-cyanomethyl-1H-pyrazol-4-yl)-3-hydroxy-2-oxopyrrolidine-3-carboxamide], the concentration for half-maximal inhibition (IC50) is greater than 10 µM. Under `CC(=O)NS(=O)(=O)c1ccc(N2CCC(O)(C(=O)NCc3cc(F)cc(Cl)c3)C2=O)cc1` (stereo not shown) [B118, N-(3-Chloro-5-fluorobenzyl)-1-(4-acetylsulfamoylphenyl)-3-hydroxy-2-oxopyrrolidine-3-carboxamide] stands 0.01 to 1 µM. Under `NC(=O)Cn1cc(N2CC[C@](O)(C(=O)NCc3cc(F)cc(Cl)c3)C2=O)cn1` [B119, N-(3-Chloro-5-fluorobenzyl)-(S)-1-(1-carbamoylmethyl-1H-pyrazol-4-yl)-3-hydroxy-2-oxo-pyrrolidine-3-carboxamide] stands 0.01 to 1 µM; under `O=C(NCCO)c1cc2cc(N3CC[C@](O)(C(=O)NCc4cc(F)cc(Cl)c4)C3=O)ccc2[nH]1` [B121, N-(2-hydroxyethyl)-5-[(S)-3-(3-chloro-5-fluorobenzyl-carbamoyl)-3-hydroxy-2-oxo-pyrrolidin-1-yl]-1H-indole-2-carboxamide], 0.01 to 1 µM. Under `CN1CCN(C(=O)c2cc3cc(N4CC[C@](O)(C(=O)NCc5cc(F)cc(Cl)c5)C4=O)ccc3[nH]2)CC1` [B122, N-(3-Chloro-5-fluorobenzyl)-(S)-3-hydroxy-1-[2-(4-methyl-piperazin-1-carbonyl)-1H-indol-5-yl]-2-oxopyrrolidine-3-carboxamide] stands 0.01 to 1 µM; under `CC(C)(C)OC(=O)N1CCN(C(=O)c2cc3cc(N4CC[C@](O)(C(=O)NCc5cc(F)cc(Cl)c5)C4=O)ccc3[nH]2)CC1` [B123, tert-Butyl 4-{5-[(S)-3-(3-chloro-5-fluorobenzylcarbamoyl)-3-hydroxy-2-oxopyrrolidin-1-yl]-1H-indol-2-carbonyl}-piperazine-1-carboxylate], 0.01 to 1 µM; under `O=C1CCc2c(ccc(N3CCC(O)(C(=O)NCc4cc(F)cc(Cl)c4)C3=O)c2F)N1` (stereo not shown) [B124, N-(3-Chloro-5-fluorobenzyl)-1-(5-fluoro-2-oxo-1,2,3,4-tetrahydroquinolin-6-yl)-3-hydroxy-2-oxopyrrolidine-3-carboxamide], 0.01 to 1 µM. Turning to `O=C(c1cc2cc(N3CC[C@](O)(C(=O)NCc4cc(F)cc(Cl)c4)C3=O)ccc2[nH]1)N1CCNCC1` [B126, N-(3-Chloro-5-fluorobenzyl)-(S)-3-hydroxy-2-oxo-1-[2-(piperazin-1-carbonyl)-1H-indol-5-yl]-pyrrolidine-3-carboxamide], the IC50 is 0.01 to 1 µM. Consider `Nc1ccccc1NC(=O)c1cc2cc(N3CC[C@](O)(C(=O)NCc4cc(F)cc(Cl)c4)C3=O)ccc2[nH]1` [B129, N-(2-Aminophenyl)-5-[(S)-3-(3-chloro-5-fluorobenzyl-carbamoyl)-3-hydroxy-2-oxo-pyrrolidin-1-yl]-1H-indole-2-carboxamide], for which the IC50 was 0.01 to 1 µM. Under `NCCNC(=O)c1cc2cc(N3CC[C@](O)(C(=O)NCc4cc(F)cc(Cl)c4)C3=O)ccc2[nH]1` [B132, N-(2-Aminoethyl)-5-[(S)-3-(3-chloro-5-fluorobenzyl-carbamoyl)-3-hydroxy-2-oxo-pyrrolidin-1-yl]-1H-indole-2-carboxamide] stands 0.01 to 1 µM. Under `O=C(NCc1cc(F)cc(Cl)c1)[C@@]1(O)CCN(c2ccc3[nH]c(-c4nc5ccccc5[nH]4)cc3c2)C1=O` [B133, N-(3-Chloro-5-fluorobenzyl)-(S)-1-[2-(1H-benzoimidazol-2-yl)-1H-indol-5-yl]-3-hydroxy-2-oxo-pyrrolidine-3-carboxamide] stands 0.01 to 1 µM; under `NNC(=O)c1cc2cc(N3CC[C@](O)(C(=O)NCc4cc(F)cc(Cl)c4)C3=O)ccc2[nH]1` [B134, N-(3-Chloro-5-fluorobenzyl)-(S)-1-(2-hydrazinocarbonyl-1H-indol-5-yl)-3-hydroxy-2-oxo-pyrrolidine-3-carboxamide], 0.01 to 1 µM.

With `Cc1noc(-c2cc3cc(N4CC[C@](O)(C(=O)NCc5cc(F)cc(Cl)c5)C4=O)ccc3[nH]2)n1` [B135, N-(3-Chloro-5-fluorobenzyl)-(S)-3-hydroxy-1-[2-(3-methyl-1,2,4-oxadiazol-5-yl)-1H-indol-5-yl]-2-oxopyrrolidine-3-carboxamide], the IC50 is 0.01 to 1 µM. As to `O=C(NCc1cc(F)cc(Cl)c1)[C@@]1(O)CCN(OCc2ccccc2)C1=O` [B136, N-(3-Chloro-5-fluorobenzyl)-(S)-1-benzyloxy-3-hydroxy-2-oxo-pyrrolidine-3-carboxamide], the IC50 lay within 0.01 to 1 µM. Under `O=C(NCc1cc(F)cc(Cl)c1)[C@]1(O)CCN(OCc2ccccc2)C1=O` [B138, N-(3-Chloro-5-fluorobenzyl)-(R)-1-benzyloxy-3-hydroxy-2-oxo-pyrrolidine-3-carboxamide] stands greater than 10 µM; under `O=C(NCc1cc(F)cc(Cl)c1)[C@@]1(O)CCN(c2cnc3[nH]cc(C(F)(F)F)c3c2)C1=O` [B139, N-(3-Chloro-5-fluorobenzyl)-(S)-3-hydroxy-2-oxo-1-(3-trifluoro-methyl-1H-pyrrolo[2,3-b]pyridin-5-yl)pyrrolidine-3-carboxamide], 0.01 to 1 µM; under `O=C(NCc1cc(F)cc(Cl)c1)[C@]1(O)CCN(c2cnc3[nH]cc(C(F)(F)F)c3c2)C1=O` [B140, N-(3-Chloro-5-fluorobenzyl)-(R)-3-hydroxy-2-oxo-1-(3-trifluoromethyl-1H-pyrrolo-[2,3-b]pyridin-5-yl)pyrrolidine-3-carboxamide], greater than 10 µM. In the case of `CNS(=O)(=O)c1ccc(N2CC[C@](O)(C(=O)NCc3cc(F)cc(Cl)c3)C2=O)cc1` [B141, N-(3-Chloro-5-fluorobenzyl)-(S)-3-hydroxy-1-(4-methylsulfamoyl-phenyl)-2-oxopyrrolidine-3-carboxamide], the IC50 lay within 0.01 to 1 µM. Under “(S)-3-(1,1-Dioxo-1l6- thiomorpholine-4-carbonyl)-3- hydroxy-1-phenylpyrrolidin-2-one [A56]” stands greater than 10 µM.
